Assay in all cases: relative viability (nuclei count vs DMSO), 5 days (fraction); higher = more cells survive
Compound in experiment [1]: CC1=C(N=C(N=C1N)[C@H](CC(=O)N)NC[C@@H](C(=O)N)N)C(=O)N[C@@H]([C@H](C2=CN=CN2)OC3C(C(C(C(O3)CO)O)O)OC4C(C(C(C(O4)CO)O)OC(=O)N)O)C(=O)N[C@H](C)[C@H]([C@H](C)C(=O)N[C@@H]([C@@H](C)O)C(=O)NCCC5=NC(=CS5)C6=NC(=CS6)C(=O)NCCC[S+](C)C)O [Bleomycin] + N=C(N)NC(=N)NCCc1ccccc1 [Phenformin] (partner 250 µM)
The following applies: main component drawn. An outline of the steps: (§1)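 One day after seeding in 1536-well plates, lung cancer cell lines were dosed by pin tool. Dosing was either single-drug or a fixed anchor-drug dose plus five library-drug doses (not always all listed) in √10 steps. After 5 days, nuclei were stained in one fix-and-stain step and counted on 4× images, and relative viability is the nuclei count of treated wells over that of vehicle wells, given as the median of duplicate plates.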

Compound in experiment [2]: COc1cc([C@@H]2c3cc4c(cc3[C@@H](O[C@@H]3O[C@@H]5CO[C@@H](C)O[C@H]5[C@H](O)[C@H]3O)[C@H]3COC(=O)[C@H]23)OCO4)cc(OC)c1O [Etoposide] + O=C(CCCCCCC(=O)Nc1ccccc1)NO [Vorinostat] (partner 1 µM)
An outline of the steps: as §1

Compound in experiment [3]: COc1cc([C@@H]2c3cc4c(cc3[C@@H](O[C@@H]3O[C@@H]5CO[C@@H](C)O[C@H]5[C@H](O)[C@H]3O)[C@H]3COC(=O)[C@H]23)OCO4)cc(OC)c1O [Etoposide] + CS(=O)(=O)N1CCN(Cc2cc3nc(-c4cccc5[nH]ncc45)nc(N4CCOCC4)c3s2)CC1 [Pictilisib] (partner 1 µM)
An outline of the steps:
as §1

Compound in experiment [4]: COc1cc([C@@H]2c3cc4c(cc3[C@@H](O[C@@H]3O[C@@H]5CO[C@@H](C)O[C@H]5[C@H](O)[C@H]3O)[C@H]3COC(=O)[C@H]23)OCO4)cc(OC)c1O [Etoposide] + CC(=O)Nc1cccc(-n2c(=O)n(C3CC3)c(=O)c3c(Nc4ccc(I)cc4F)n(C)c(=O)c(C)c32)c1 [Trametinib] (partner 0.02 µM)
An outline of the steps: as §1

For the cell line RERF-LC-KJ, the relative viability was 0.287 in experiment [1] (first compound 0.01 µM); 0.271 in experiment [1] (first compound 0.03162 µM); 0.269 in experiment [1] (first compound 0.1 µM); 0.209 in experiment [1] (first compound 0.3162 µM); 0.183 in experiment [1] (first compound 1 µM); 0.624 in experiment [2] (first compound 0.01 µM). Further, the relative viability in experiment [2] (first compound 0.03162 µM) was 0.728; in experiment [2] (first compound 0.1 µM), 0.5; in experiment [2] (first compound 0.3162 µM), 0.621; in experiment [2] (first compound 1 µM) it was 0.412; in experiment [3] (first compound 0.01 µM), 0.533; in experiment [3] (first compound 0.03162 µM) it was 0.586. Also, the relative viability was 0.459 in experiment [3] (first compound 0.1 µM); 0.529 in experiment [3] (first compound 0.3162 µM); 0.365 in experiment [3] (first compound 1 µM); 0.7 in experiment [4] (first compound 0.01 µM); 0.899 in experiment [4] (first compound 0.03162 µM); 0.822 in experiment [4] (first compound 0.1 µM). Further, the results for the relative viability in experiment [4] (first compound 0.3162 µM) and in experiment [4] (first compound 1 µM) were 0.835 and 0.6, respectively.
Turning to NCI-H661, the relative viability in experiment [1] (first compound 0.01 µM) worked out at 0.272; in experiment [1] (first compound 0.03162 µM), 0.239; in experiment [1] (first compound 0.1 µM), 0.232; in experiment [1] (first compound 0.3162 µM) it was 0.216; in experiment [1] (first compound 1 µM), 0.215; in experiment [2] (first compound 0.01 µM) it was 0.759. Also, the relative viability was found to be 0.841 in experiment [2] (first compound 0.03162 µM); 0.706 in experiment [2] (first compound 0.1 µM); 0.476 in experiment [2] (first compound 0.3162 µM); 0.382 in experiment [2] (first compound 1 µM); 0.543 in experiment [3] (first compound 0.01 µM); 0.453 in experiment [3] (first compound 0.03162 µM). The relative viability in experiment [3] (first compound 0.1 µM) was found to be 0.309; in experiment [3] (first compound 0.3162 µM), 0.32; in experiment [3] (first compound 1 µM), 0.26; in experiment [4] (first compound 0.01 µM), 0.567; in experiment [4] (first compound 0.03162 µM) it was 0.639; in experiment [4] (first compound 0.1 µM), 0.398. The relative viability in experiment [4] (first compound 0.3162 µM) stood at 0.51; in experiment [4] (first compound 1 µM), 0.388.
Take PC-14: the relative viability in experiment [1] (first compound 0.01 µM) was 0.433; in experiment [1] (first compound 0.03162 µM), 0.341; in experiment [1] (first compound 0.1 µM), 0.197; in experiment [1] (first compound 0.3162 µM), 0.0557; in experiment [1] (first compound 1 µM), 0.0309; in experiment [2] (first compound 0.01 µM), 0.762. For the same cell line, the relative viability was 0.89 in experiment [2] (first compound 0.03162 µM); 0.558 in experiment [2] (first compound 0.1 µM); 0.495 in experiment [2] (first compound 0.3162 µM); 0.234 in experiment [2] (first compound 1 µM); 0.598 in experiment [3] (first compound 0.01 µM); 0.638 in experiment [3] (first compound 0.03162 µM). The relative viability in experiment [3] (first compound 0.1 µM) came to 0.543; in experiment [3] (first compound 0.3162 µM), 0.371; in experiment [3] (first compound 1 µM) it was 0.289; in experiment [4] (first compound 0.01 µM) it was 0.715; in experiment [4] (first compound 0.03162 µM) it was 0.678; in experiment [4] (first compound 0.1 µM) it was 0.798. Further, the relative viability stood at 0.491 in experiment [4] (first compound 0.3162 µM) and 0.229 in experiment [4] (first compound 1 µM).
Take COR-L 105: the relative viability in experiment [1] (first compound 0.01 µM) came to 0.49; in experiment [1] (first compound 0.03162 µM), 0.394; in experiment [1] (first compound 0.1 µM), 0.399; in experiment [1] (first compound 0.3162 µM) it was 0.315; in experiment [1] (first compound 1 µM) it was 0.35; in experiment [2] (first compound 0.01 µM), 1.09. The relative viability in experiment [2] (first compound 0.03162 µM) turned out to be 0.856; in experiment [2] (first compound 0.1 µM) it was 0.731; in experiment [2] (first compound 0.3162 µM), 0.727; in experiment [2] (first compound 1 µM), 0.734; in experiment [3] (first compound 0.01 µM), 0.374; in experiment [3] (first compound 0.03162 µM), 0.395. The relative viability in experiment [3] (first compound 0.1 µM) was 0.337; in experiment [3] (first compound 0.3162 µM), 0.327; in experiment [3] (first compound 1 µM), 0.335; in experiment [4] (first compound 0.01 µM) it was 0.443; in experiment [4] (first compound 0.03162 µM), 0.479; in experiment [4] (first compound 0.1 µM) it was 0.439. Further, the figures for the relative viability in experiment [4] (first compound 0.3162 µM) and in experiment [4] (first compound 1 µM) were 0.437 and 0.398, respectively.
Regarding NCI-H3122, the relative viability in experiment [1] (first compound 0.01 µM) came to 0.341; in experiment [1] (first compound 0.03162 µM), 0.379; in experiment [1] (first compound 0.1 µM) it was 0.5; in experiment [1] (first compound 0.3162 µM), 0.194; in experiment [1] (first compound 1 µM) it was 0.198; in experiment [2] (first compound 0.01 µM) it was 1.04. Moreover, the relative viability in experiment [2] (first compound 0.03162 µM) is 1.11; in experiment [2] (first compound 0.1 µM) it was 0.598; in experiment [2] (first compound 0.3162 µM), 0.66; in experiment [2] (first compound 1 µM) it was 0.224; in experiment [3] (first compound 0.01 µM), 0.687; in experiment [3] (first compound 0.03162 µM), 0.74. Further, the relative viability in experiment [3] (first compound 0.1 µM) worked out at 0.387; in experiment [3] (first compound 0.3162 µM) it was 0.576; in experiment [3] (first compound 1 µM), 0.349; in experiment [4] (first compound 0.01 µM), 0.23; in experiment [4] (first compound 0.03162 µM) it was 0.223; in experiment [4] (first compound 0.1 µM) it was 0.153. The figures for the relative viability in experiment [4] (first compound 0.3162 µM) and in experiment [4] (first compound 1 µM) were 0.23 and 0.215, respectively.
For the cell line NCI-H1395, the relative viability amounted to 0.404 in experiment [1] (first compound 0.01 µM); 0.411 in experiment [1] (first compound 0.03162 µM); 0.456 in experiment [1] (first compound 0.1 µM); 0.325 in experiment [1] (first compound 0.3162 µM); 0.351 in experiment [1] (first compound 1 µM); 0.659 in experiment [2] (first compound 0.01 µM). Besides, the relative viability turned out to be 0.905 in experiment [2] (first compound 0.03162 µM); 0.509 in experiment [2] (first compound 0.1 µM); 0.54 in experiment [2] (first compound 0.3162 µM); 0.502 in experiment [2] (first compound 1 µM); 0.618 in experiment [3] (first compound 0.01 µM); 0.665 in experiment [3] (first compound 0.03162 µM). For the same cell line, the relative viability in experiment [3] (first compound 0.1 µM) turned out to be 0.591; in experiment [3] (first compound 0.3162 µM) it was 0.551; in experiment [3] (first compound 1 µM), 0.446; in experiment [4] (first compound 0.01 µM), 0.962; in experiment [4] (first compound 0.03162 µM) it was 1.15; in experiment [4] (first compound 0.1 µM) it was 0.839. Moreover, the relative viability in experiment [4] (first compound 0.3162 µM) came out at 1.01; in experiment [4] (first compound 1 µM), 0.808.
Regarding NCI-H727, the relative viability came to 0.65 in experiment [1] (first compound 0.01 µM); 0.621 in experiment [1] (first compound 0.03162 µM); 0.469 in experiment [1] (first compound 0.1 µM); 0.502 in experiment [1] (first compound 1 µM); 1.16 in experiment [2] (first compound 0.01 µM); 1.47 in experiment [2] (first compound 0.03162 µM). The relative viability amounted to 0.873 in experiment [2] (first compound 0.1 µM); 1.12 in experiment [2] (first compound 0.3162 µM); 0.96 in experiment [2] (first compound 1 µM); 0.327 in experiment [3] (first compound 0.01 µM); 0.469 in experiment [3] (first compound 0.03162 µM); 0.215 in experiment [3] (first compound 0.1 µM). The relative viability turned out to be 0.444 in experiment [3] (first compound 0.3162 µM); 0.35 in experiment [3] (first compound 1 µM); 0.395 in experiment [4] (first compound 0.01 µM); 0.43 in experiment [4] (first compound 0.03162 µM); 0.378 in experiment [4] (first compound 0.1 µM); 0.338 in experiment [4] (first compound 0.3162 µM). The relative viability in experiment [4] (first compound 1 µM) is 0.355.

The values are drawn from the supplement of paper PMC10307832.
